Tests used:
[1] = Chemically induced release of a cyclopropene (1-methylcyclopropene) by a reducing or nucleophilic agent, GC of headspace; assay type: physicochemical
Experimental: (§1) Into a 50 ml Florence flask with magnetic stirring was placed 2 ml of tetrahydrofuran and 0.30 g of 1,2-diiodo-1-methylcyclopropane. […] GC method uses Varian CP-PoraBOND Q column 10 meters long 0.32 mm ID; helium carrier; initial temperature 50° C.; initial time 0 minutes; ramp rate 20° C./min; final temperature 270° C.; final time 5 minutes; injection volume 0.20 ml. The retention time of an authentic sample of 1-methylcyclopropene was 2.91 minutes. 1 ppm is easily detectable under these conditions.
Into a 100 ml Florence flask with magnetic stirring was placed 2 ml of tetrahydrofuran and 1.0 g of zinc dust. The zinc was activated with 10 drops of 1,2-dibromoethane. Then 0.34 g of 1,2-diiodo-1-methylcyclopropane was added.
Into a 100 ml Florence flask with magnetic stirring was placed 2 ml of methanol and 1.0 g of zinc dust. The zinc was activated with 10 drops of 1,2-dibromoethane. Then 0.34 g of 1,2-diiodo-1-methylcyclopropane was added.
Into a 100 ml Florence flask with magnetic stirring was placed 2 ml of tetrahydrofuran and 1.1 g of magnesium turnings. The magnesium was activated with 10 drops of 1,2-dibromoethane. Then 0.35 g of 1,2-diiodo-1-methylcyclopropane was added.
Into a 50 ml Florence flask with magnetic stirring was placed 3 g of dimethylformamide and 1.2 g of triphenylphosphine. Then 0.83 g of 1,2-diiodo-1-methylcyclopropane was added.
Into a 100 ml Florence flask with magnetic stirring was placed 2 g of dimethylformamide, 0.70 g of potassium t-butoxide, and 0.84 g of 4-methylbenzenethiol. Then 0.40 g of 1,2-diiodo-1-methylcyclopropane was added.
The polymeric reagent was prepared by slurrying 50 ml of Duolite™ GT73 (Rohm and Haas Company) and stirring for two hours with 50 ml of water and 10 g of 45% aqueous potassium hydroxide. The slurry was filtered, washed twice with water, thrice with methanol, air dried, and placed in a vacuum oven overnight. 0.54 g of this polymeric reagent was placed in a 122 ml vial and the beads were wetted with 0.10 g of 1,2-diiodo-1-methylcyclopropane in 0.70 g of methanol.

[2] = Control experiment: 1,2-diiodo-1-methylcyclopropane in tetrahydrofuran without reagent, GC of headspace; assay type: physicochemical; conditions: 0.30 g in 2 ml tetrahydrofuran, no reagent, stirring 5 minutes; 1 ppm easily detectable
Experimental: as §1

## CC1(I)CC1I (stereo not shown) [Example 60, 1,2-diiodo-1-methylcyclopropane]
[1]; 4-methylbenzenethiol 0.84 g, potassium t-butoxide 0.70 g in 2 g dimethylformamide, 0.40 g precursor, 100 ml flask, 15 minutes at room temperature
  1-methylcyclopropene in headspace (GC analysis): 87567 ppm
[1]; magnesium turnings 1.1 g (activated with 1,2-dibromoethane) in 2 ml tetrahydrofuran, 0.35 g precursor, 100 ml flask, stirring 3 hours
  1-methylcyclopropene in headspace (GC analysis): 49993 ppm
[1]; polymeric benzenethiol reagent (Duolite GT73, KOH treated) 0.54 g, 0.10 g precursor in 0.70 g methanol, 122 ml vial, overnight at room temperature
  1-methylcyclopropene in headspace (GC analysis): 134 ppm
[1]; triphenylphosphine 1.2 g in 3 g dimethylformamide, 0.83 g precursor, 50 ml flask, 15 minutes at room temperature
  1-methylcyclopropene in headspace (GC analysis): 10 ppm
[1]; zinc dust 1.0 g (activated with 1,2-dibromoethane) in 2 ml methanol, 0.34 g precursor, 100 ml flask, stirring 30 minutes
  1-methylcyclopropene in headspace (GC analysis): 98390 ppm
[1]; zinc dust 1.0 g (activated with 1,2-dibromoethane) in 2 ml tetrahydrofuran, 0.34 g precursor, 100 ml flask, stirring 20 hours
  1-methylcyclopropene in headspace (GC analysis): 4658 ppm
[2]
  1-methylcyclopropene in headspace (GC analysis): no detectable 1-methylcyclopropene

Source: patent publication US20130172191A1, “STABLE ETHYLENE INHIBITING COMPOUNDS AND METHODS FOR THEIR PREPARATION” (priority 2002, published 2013)
